Reference: ChEMBL document CHEMBL1667725, “Tuberatolides, potent FXR antagonists from the Korean marine tunicate Botryllus tuberatus” (J Nat Prod, 2011)
The source made the active and inactive calls.

Tests used:
[1] = target: T1, Retinoic acid receptor alpha (Homo sapiens) (UniProt P10276); assay: Effect on human Gal4-fused RAR alpha at 10 uM by luciferase reporter gene assay
T1 sequence (whole entry): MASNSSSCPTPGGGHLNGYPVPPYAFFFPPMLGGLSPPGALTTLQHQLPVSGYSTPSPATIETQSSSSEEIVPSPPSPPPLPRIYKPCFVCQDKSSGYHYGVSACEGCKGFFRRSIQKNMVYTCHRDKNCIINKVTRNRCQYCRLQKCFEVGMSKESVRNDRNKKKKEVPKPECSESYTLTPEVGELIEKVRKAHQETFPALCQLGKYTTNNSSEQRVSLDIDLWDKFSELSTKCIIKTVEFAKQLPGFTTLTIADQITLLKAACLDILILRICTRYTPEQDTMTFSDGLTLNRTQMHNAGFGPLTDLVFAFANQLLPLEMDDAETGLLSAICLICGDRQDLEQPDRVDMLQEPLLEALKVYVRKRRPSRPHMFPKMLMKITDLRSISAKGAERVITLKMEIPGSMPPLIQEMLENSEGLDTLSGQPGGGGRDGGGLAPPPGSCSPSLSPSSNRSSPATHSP

[2] = target: T2, Androgen receptor (Homo sapiens) (UniProt P10275); assay: Effect on human Gal4-fused AR at 10 uM by luciferase reporter gene assay
T2 sequence (whole entry): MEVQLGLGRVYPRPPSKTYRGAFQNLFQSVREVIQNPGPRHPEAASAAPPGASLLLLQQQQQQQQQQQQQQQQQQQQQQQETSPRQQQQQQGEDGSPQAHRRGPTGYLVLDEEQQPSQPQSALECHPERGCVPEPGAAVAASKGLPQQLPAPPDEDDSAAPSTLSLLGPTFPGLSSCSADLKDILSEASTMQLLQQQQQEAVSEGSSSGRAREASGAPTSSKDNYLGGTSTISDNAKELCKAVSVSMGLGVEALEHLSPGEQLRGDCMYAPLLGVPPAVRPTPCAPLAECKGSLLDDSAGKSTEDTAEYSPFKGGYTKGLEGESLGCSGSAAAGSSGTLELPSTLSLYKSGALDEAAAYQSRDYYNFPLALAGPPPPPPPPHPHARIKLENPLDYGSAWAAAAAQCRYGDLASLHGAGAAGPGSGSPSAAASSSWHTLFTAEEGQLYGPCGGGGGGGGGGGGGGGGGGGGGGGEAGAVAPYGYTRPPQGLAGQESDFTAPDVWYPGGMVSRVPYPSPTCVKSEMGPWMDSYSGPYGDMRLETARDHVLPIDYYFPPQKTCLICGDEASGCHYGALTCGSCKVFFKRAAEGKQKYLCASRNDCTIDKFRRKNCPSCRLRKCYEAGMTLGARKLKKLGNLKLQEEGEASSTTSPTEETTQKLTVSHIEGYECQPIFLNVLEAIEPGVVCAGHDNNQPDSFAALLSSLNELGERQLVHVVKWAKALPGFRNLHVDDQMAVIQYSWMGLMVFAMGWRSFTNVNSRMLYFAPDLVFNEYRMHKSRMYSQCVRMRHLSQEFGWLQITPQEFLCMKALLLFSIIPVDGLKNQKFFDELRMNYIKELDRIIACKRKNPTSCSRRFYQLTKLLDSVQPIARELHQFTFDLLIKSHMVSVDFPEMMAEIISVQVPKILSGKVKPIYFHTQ

[3] = target: T3, Estrogen receptor (Homo sapiens) (UniProt P03372); assay: Effect on human Gal4-fused ERalpha at 10 uM by luciferase reporter gene assay
T3 sequence (whole entry): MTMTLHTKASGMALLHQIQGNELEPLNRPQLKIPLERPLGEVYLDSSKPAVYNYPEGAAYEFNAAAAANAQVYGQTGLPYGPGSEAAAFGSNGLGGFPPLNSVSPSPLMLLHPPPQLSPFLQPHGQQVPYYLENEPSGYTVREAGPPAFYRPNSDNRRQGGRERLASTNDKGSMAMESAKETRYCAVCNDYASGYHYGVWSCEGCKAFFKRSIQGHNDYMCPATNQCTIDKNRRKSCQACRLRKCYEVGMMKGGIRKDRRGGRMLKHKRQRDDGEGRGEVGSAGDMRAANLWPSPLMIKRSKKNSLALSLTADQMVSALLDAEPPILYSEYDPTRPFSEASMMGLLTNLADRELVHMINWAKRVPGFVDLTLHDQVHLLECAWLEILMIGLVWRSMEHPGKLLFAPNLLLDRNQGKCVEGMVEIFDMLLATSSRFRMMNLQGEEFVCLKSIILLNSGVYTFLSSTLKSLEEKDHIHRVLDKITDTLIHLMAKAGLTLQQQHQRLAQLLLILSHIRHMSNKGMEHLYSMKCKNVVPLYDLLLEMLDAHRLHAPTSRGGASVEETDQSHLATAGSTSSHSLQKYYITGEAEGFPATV

[4] = target: T4, Mineralocorticoid receptor (Homo sapiens) (UniProt P08235); assay: Effect on human Gal4-fused MCR at 10 uM by luciferase reporter gene assay
T4 sequence (whole entry): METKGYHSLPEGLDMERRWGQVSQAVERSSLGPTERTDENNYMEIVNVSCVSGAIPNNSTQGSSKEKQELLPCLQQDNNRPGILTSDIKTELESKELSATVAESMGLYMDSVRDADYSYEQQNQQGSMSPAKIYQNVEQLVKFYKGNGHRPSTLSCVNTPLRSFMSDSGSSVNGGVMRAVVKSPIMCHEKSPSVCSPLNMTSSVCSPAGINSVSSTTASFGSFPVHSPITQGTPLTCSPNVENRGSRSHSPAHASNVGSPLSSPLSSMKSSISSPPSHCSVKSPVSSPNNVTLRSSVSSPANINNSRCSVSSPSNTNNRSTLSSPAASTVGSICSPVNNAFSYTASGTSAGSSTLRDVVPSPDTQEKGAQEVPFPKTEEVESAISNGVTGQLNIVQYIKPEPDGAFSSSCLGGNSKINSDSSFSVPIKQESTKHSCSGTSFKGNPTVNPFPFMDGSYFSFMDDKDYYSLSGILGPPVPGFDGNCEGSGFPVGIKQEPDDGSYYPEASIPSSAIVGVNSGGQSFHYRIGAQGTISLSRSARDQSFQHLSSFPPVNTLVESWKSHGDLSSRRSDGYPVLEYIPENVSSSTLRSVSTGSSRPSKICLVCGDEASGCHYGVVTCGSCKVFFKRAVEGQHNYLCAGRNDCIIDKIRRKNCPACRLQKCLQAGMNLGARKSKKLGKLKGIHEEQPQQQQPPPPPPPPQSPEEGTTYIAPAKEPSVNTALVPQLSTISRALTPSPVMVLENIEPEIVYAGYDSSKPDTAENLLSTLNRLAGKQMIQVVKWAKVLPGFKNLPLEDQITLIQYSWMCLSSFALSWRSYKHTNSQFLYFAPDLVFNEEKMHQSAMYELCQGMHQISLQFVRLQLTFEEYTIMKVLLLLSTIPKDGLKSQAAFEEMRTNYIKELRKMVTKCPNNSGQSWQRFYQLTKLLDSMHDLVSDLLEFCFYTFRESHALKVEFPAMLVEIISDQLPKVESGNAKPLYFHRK

Measured: Activity

CC(C)=CCCC1=C[C@@H](C/C(C)=C/CC/C(C)=C/CC2=CC(=O)C=C(C)C2=O)OC1=O [YEZOQUINOLIDE]
inactive: all assays above

CC(C)=CCC/C(=C/CC/C(C)=C/CC[C@@]1(C)C=Cc2cc(O)cc(C)c2O1)C(=O)O [(S)-SARGACHROMENOL]
inactive: all assays above

CC(C)=CCCC1=C[C@@H](C/C(C)=C/CC[C@]2(C)C=Cc3cc(O)cc(C)c3O2)OC1=O [2'-EPI-TUBERATOLIDE B]
inactive: all assays above

CC(=O)CC/C=C(\C)C[C@@H]1C=C(CCC=C(C)C)C(=O)O1 [TUBERATOLIDE A]
inactive: all assays above

CC(C)=CCCC1=C[C@@H](C/C(C)=C/CC[C@@]2(C)C=Cc3cc(O)cc(C)c3O2)OC1=O [TUBERATOLIDE B]
inactive: all assays above

CC(C)=CCC/C(=C/CC/C(C)=C/CC[C@]1(C)C=Cc2cc(O)cc(C)c2O1)C(=O)O [(R)-SARGACHROMENOL]
inactive: all assays above
